{"source": "patent US20240335414A1", "about": "“SPECIALIZED COMBINATIONS FOR MENTAL DISORDERS OR MENTAL ENHANCEMENT” (TACTOGEN INC, priority 2021, published 2024)", "origin": "cited, not measured here", "key": {"[1]": {"details": "pooled Phase 2 clinical trials"}, "[2]": {"details": "MDMA arm, first of two Phase 3 trials, MDMA-assisted therapy"}, "5-HT1B": {"target": "5-HT1B (Homo sapiens, UniProt P28222)", "sequence (P28222 whole entry, species assumed)": "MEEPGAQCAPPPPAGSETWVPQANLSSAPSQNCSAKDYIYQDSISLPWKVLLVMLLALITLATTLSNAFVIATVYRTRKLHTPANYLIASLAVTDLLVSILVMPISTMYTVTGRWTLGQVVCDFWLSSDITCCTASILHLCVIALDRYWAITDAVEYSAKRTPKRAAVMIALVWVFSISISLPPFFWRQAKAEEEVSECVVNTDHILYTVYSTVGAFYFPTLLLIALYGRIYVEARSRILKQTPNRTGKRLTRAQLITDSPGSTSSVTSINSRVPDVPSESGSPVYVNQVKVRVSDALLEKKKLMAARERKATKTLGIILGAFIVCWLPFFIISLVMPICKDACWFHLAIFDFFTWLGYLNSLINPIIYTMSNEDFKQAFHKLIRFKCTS"}}, "data": [{"smiles": "CNC(C)Cc1ccc2c(c1)OCO2", "note": "(stereo not drawn) [MDMA, 3,4-methylenedioxymethamphetamine]", "values": [{"measurement": "EC50", "setting": "neuritogenesis; read-out: EC50 for promoting neuritogenesis", "value": 7.41, "unit": "nM"}, {"measurement": "Emax for promoting neuritogenesis, compared with ketamine", "setting": "neuritogenesis; relative to ketamine", "value": "approximately twice that of ketamine"}, {"measurement": "nausea, proportion of participants", "setting": "[1]; 29 of 72 participants", "value": 40.3, "unit": "%"}, {"measurement": "anxiety, proportion of participants", "setting": "[1]; 52 of 72 participants", "value": 72.2, "unit": "%"}, {"measurement": "participants no longer diagnosable with PTSD", "setting": "[2]", "value": "two-thirds"}, {"measurement": "binding to the 5-HT1B", "setting": "5-HT1B", "value": "does not bind"}]}]}
